One series in a line: in vivo. As to conditions: Wistar, rat, po.
Series [1] in a line: In vivo pharmacokinetic study in Beagle dogs. As to conditions: dog, Beagle dogs (n=6).

SMILES strings stand for the structures. Read-outs that look alike come from different tables or passages of the source.

The term AUC denotes the area under the concentration-time curve, a measure of exposure. A word on the Cmax: it is the highest concentration seen after dosing. For orientation: Tmax means the time from dosing to the highest level. In “in vivo”, `CC(C)OC(=O)C(C)(C)Oc1ccc(C(=O)c2ccc(Cl)cc2)cc1` [uncoated particles, fenofibrate] came in with an AUC of 149000 ng·h/mL. Further, the Cmax in the series “in vivo” stood at 12000 ng/mL; in series [1] (read-out: Cmax, Arithmetic Mean), 497 ng/mL; in series [1] (read-out: Cmax, Geometric Mean), 430 ng/mL. In addition, the time to peak (Tmax) in the series “in vivo” is 4 h. Further, the AUC(0-t) in series [1] (read-out: AUC0-t, Arithmetic Mean) turned out to be 8690 ng·h/mL; in series [1] (read-out: AUC0-t, Geometric Mean), 7800 ng·h/mL.

(Values after patent US20260240784A1, “PHARMACEUTICAL COMPOSITIONS WITH IMPROVED DISSOLUTION” (Applied Materials, Inc., priority 2023, published 2026).)
